In patent US10766942B2, “Fragments of syndecan-2 having anti-angiogenic activity” (Queen Mary University of London, priority 2014, dated 2020):

Columns and labels:
HUVECs [1] = experiment: Scratch wound cell migration assay on HUVEC monolayers; assay type: cell-based, human
Method: In this assay scratches are made in confluent monolayers of HUVECS and the cells incubated in the presence or absence of different concentrations of the human syndecan-2 peptides. Cell migration is measured by time lapse microscopy using an Olympus IX81 microscope with a controlled environment chamber set at 37° C., 10% CO2. Images were captured every 30 minutes using a Hamamatsu Orca ER digital camera and processed using Cell^M software (Olympus). […]
In one assay, scratches were made in confluent monolayers of HUVECs and the cells incubated in the presence or absence of different concentrations of hS2pep (human syndecan-2 peptide) and scrambled peptides (FIG. 1A).
Scratch wound migration assays: Scratch wound migration assays were performed on confluent monolayers of ECs. Wounds were made using a pipette tip, and fusion proteins were added to the medium and images were captured every 30 minutes for 12 hours by time lapse microscopy using an Olympus IX81 microscope. Percentage wound closure was calculated and individual cells tracked using Image J.

HUVECs [2] = experiment: Capillary network (tubule) formation of HUVECs on growth factor depleted Matrigel; assay type: cell-based, human; settings: 1 μm, FIG. 3B
Method: 80,000 HUVECs were seeded into 24 well plates coated with 100 μl/well of growth factor depleted Matrigel (BD Sciences) in the presence of the human syndecan-2 peptides scr or hS2pep at the concentrations indicated (scr corresponds to a scrambled control peptide). Tubule formation was monitored by time lapse microscopy using an Olympus IX81 microscope with a controlled environment chamber set at 37° C., 10% CO2. Images were captured every 30 minutes using a Hamamatsu Orca ER digital camera and processed using Cell^M software (Olympus). (A) Phase contrast images of tubules after 6 hours in culture. (B) Branch points were counted on at least four representative images. A branch point is defined at which two or more tubules meet.
To investigate the inhibitory effect of peptides derived from human syndecan-2, 80,000 HUVECs were seeded into 24 well plates coated with 100 ul/well of growth factor depleted Matrigel in the presence of scr or hS2pep. Tubule formation was monitored by time lapse microscopy (FIG. 3A).

murine skin ECs = experiment: Endothelial cell invasion through Collagen I (transwell); assay type: cell-based; settings: 1 uM, counted after 24 hours, vs scr
Method: 50,000 skin ECs were seeded and cells which had passed through the matrix were counted after 24 hours. Cells were stained with Calcein (5 μM) and cells imaged using an Olympus IX81 inverted microscope and a Hamamatuse Orca ER digital camera. Fluorescent cells are shown in (A) and the % migrated cells compared to the untreated control is shown in B. Cell numbers were counted from four independent images and error bars represent the SEM. Significance was calculated using 1 way ANOVA with Tukey's multiple comparison p<0.0001).
Invasion through the extracellular matrix is another indicator of angiogenesis. Collagen I matrices containing 1 uM of hS2pep and scr were prepared in an […] transwell. 50,000 murine skin ECs were seeded and cells which had passed through the matrix were counted after 24 hours.
Invasion assay: Invasion assays through collagen and Matrigel matrices were performed in 24-well plates with transwell inserts (Millipore; 8 μm pore size, polyester (PET) membrane). […] Invasion was measured after 6 hours after which time gels were removed with a cotton swab, the filter washed in PBS and stained with calcein (Invitrogen) and the number of cells attached to the filter was counted.

murine aortic ring = experiment: Mouse aortic ring model of angiogenic sprout formation; assay type: cell-based; settings: 0.5 μM in medium; sprouts counted after 7 days; murine aortic rings
Method: Aortic ring assay: Thoracic aortas dissected from cervically dislocated 180-200 g male wistar rats (Harlan Laboratories) or 6 week old C57BL/6 mice (Charles River) were sliced into 0.5 mm sections and incubated overnight in serum free OptiMEM (Invitrogen) at 37° C. Aortic rings were embedded in type I collagen (1 mg/ml) in E4 media (Invitrogen) containing either GST, syndecan-2 mutant proteins or peritoneal exudates in 48 well plates. Wells were supplemented with OptiMEM with 1% FBS and 10 ng/ml VEGF (R and D systems, 30 ng/ml for murine rings) and incubated at 37° C., 10% CO2. Angiogenic sprouts from rat and mouse aortas were counted after 4 days and 8 days respectively (Method based on that of Nicosia and Ottinetti (Laboratory Investigation 63:115-122, 1990) and modified in De Rossi et al. (Journal of Genetic Syndromes & Gene Therapy 4, 2013).
The peptide was added to the medium and sprouts were counted after 7 days in culture. Data represents the mean of at least 15 rings and error bars represent the SEM. Significance is indicated on the basis of a non-paired students t test (p***<0.001).

Choroid explants = experiment: Choroid explant model of angiogenic sprout formation; assay type: cell-based, mouse; settings: doses 0.1 μM to 1 μM, counted after 7 days
Method: 18 day old C57BL6 mice were sacrificed by cervical dislocation and eyes were enucleated prior to an incision being made 1 mm below the iris and removal of the iris, cornea lens and retina. The choroid is then removed flattened and cut into 1 mm pieces prior to incubation in serum free OptiMEM o/n at 37° C. Choroid explants are then embedded in a Collagen I matrix containing scrambled or experimental peptides and supplemented with OptiMEM containing 10 ng/ml murine VEGFA. Angiogenic sprouts were counted after 7 days.
The choroid is a vascular bed beneath the retinal pigment epithelium and supplies oxygen and nutrients to the outer retina. The choroid can be readily isolated from the murine eye and when placed in a suitable medium and after 4-6 days in culture vessel sprouting occurs and can be quantified. This assay recapitulates Choroidal neovascularisation, the cause of central vision loss in wet Age Related Macular Degeneration. […] Data is the mean number of sprouts from at least 6 Choroid explants from a total of 8 animals. Error bars represent the SEM and significance was calculated using a students t test p<0.05.

[3] = system: choroidal neovascularisation; experiment: Laser-induced choroidal neovascularisation in vivo; design: species or system mouse; settings: C57BL mice; 1 μM; 7 days post injury; injected into the eyes
Method: 6 Week old C57BL mice were anaesthetised on day 0 and 3 laser burns were applied to both eyes. On day 3, 1 μl of 4 μM QM107 (hS2pep), PBS or 4 μM scrambled control were injected into both eyes of the animals. On day 7 the choroidal neovascularisation, in response to the laser lesion, were observed by fluorescein angiography. The area of Choroidal neovascularistaion was then calculated by analysis of images using IMAGEJ.
C57BL mice were treated as described above and it is evident from FIG. 11 that around 30% less choroidal neovascularisation occurs in mice treated with 1 μM of QM107 7 days post injury as compared to animals treated with PBS or the scrambled control. N=10 for each condition and significance was calculated using a students t test.

Matrigel plugs = experiment: Matrigel plug assay (haemoglobin content); assay type: in vivo, mouse; settings: 50 μM incorporated in plug; C57BL6 mice; vs scrambled peptide control or PBS
Method: Mice were sacrificed after three days and the plugs excised, photographed and incubated overnight in PBS. Haemoglobin was quantified using Drabkin's reagent (Sigma) as described by the manufacturer. All experiments were performed under the UK legislation for the protection of animals, and at the end of all in vivo procedures involving anaesthesia, animals were humanely killed by cervical dislocation in accordance with UK Home Office regulations. Excised plugs were frozen in liquid nitrogen and subsequently embedded in ice cold OCT, 15 μm sections were made using a cryostat at −20° C. Following fixation with 4% PFA for 5 min and blocking with 10% Normal Goat Serum for 15 min, sections were stained for nuclei (DRAQ5) and the EC marker CD31 overnight. Images were captured using a PASCAL laser-scanning confocal microscope (Carl Zeiss, 10× objective). Quantification was performed using the IMARIS software and Photoshop (Adobe), ECs were identified by co-localization of nuclei with CD31 staining.
Data is from 2 plugs per animal and is the mean of two measurements.

Substance: hS2pep: Peptide derived from human syndecan-2 (SEQ ID NO 6); development name QM107 (PAEEDTNVYTEKHSDSLF; hS2pep peptide derived from human syndecan-2)
- Scratch wound closure (HUVECs [1]; 1 uM, HUVECs, FIG. 1B): greatly reduced
- HUVEC cell migration (HUVECs [1]; after 4 hours in culture, vs scrambled peptide): significantly inhibited
- Capillary network formation (number of branch points) (HUVECs [2]): inhibited
- Invasion through collagen I (murine skin ECs): inhibited
- Angiogenic sprout formation (murine aortic ring): inhibited
- Formation of angiogenic sprouts (Choroid explants): inhibit the formation of angiogenic sprouts
- Reduction of choroidal neovascularisation (area) compared to PBS or scrambled control [3]: around 30%
- Haemoglobin content of Matrigel plugs (Matrigel plugs): greatly reduced
